Series [1] addresses T1, cyclooxygenase type-2 (COX2) (Mus musculus, UniProt Q05769).
T1 sequence (Q05769 18-604): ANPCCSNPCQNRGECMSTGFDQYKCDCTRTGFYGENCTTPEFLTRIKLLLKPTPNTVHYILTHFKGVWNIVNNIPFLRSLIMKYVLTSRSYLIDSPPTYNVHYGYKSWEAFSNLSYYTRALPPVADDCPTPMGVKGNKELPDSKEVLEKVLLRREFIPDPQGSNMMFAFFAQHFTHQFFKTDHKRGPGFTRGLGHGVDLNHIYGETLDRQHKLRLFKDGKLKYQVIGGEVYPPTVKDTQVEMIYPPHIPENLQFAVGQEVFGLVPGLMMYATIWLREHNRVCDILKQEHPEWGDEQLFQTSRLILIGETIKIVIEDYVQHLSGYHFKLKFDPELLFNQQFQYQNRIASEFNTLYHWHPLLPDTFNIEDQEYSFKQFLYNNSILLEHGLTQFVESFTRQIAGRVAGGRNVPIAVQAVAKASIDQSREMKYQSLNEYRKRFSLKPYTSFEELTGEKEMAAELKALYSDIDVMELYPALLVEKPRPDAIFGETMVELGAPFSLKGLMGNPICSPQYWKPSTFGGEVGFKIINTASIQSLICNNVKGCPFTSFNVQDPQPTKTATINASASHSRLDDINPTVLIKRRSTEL
The series can be described thus: Inhibition of COX2 activity (PGE2 formation) in LPS/IFNγ-induced RAW 264.7 macrophages. The following applies: RAW264.7, read-out: COX2 inhibition %.
Description: The inhibitory activity on COX2 was, instead, analyzed following the induction of this protein with 1 μg/mL of the bacterial endotoxin, lipopolysaccharide (LPS) and 10 ng/mL of interferon-γ (IFNγ) that were applied for 16 h to RAW 264.7 macrophages previously treated with 100 μM of the irreversible blocker, aspirin (ASA). Arachidonic acid served as substrate for the enzyme and the extent of PGE2 formation taken as index of COX2 activity.

In series [2] the target is T2, cyclooxygenase type-1 (COX1) (Mus musculus, UniProt P22437).
T2 construct: cyclooxygenase type-1 (COX1) activity was estimated in resting RAW 264.7 macrophages; endogenous in cells; host or cells: RAW 264.7 macrophages (resting)
T2 sequence (P22437 27-602): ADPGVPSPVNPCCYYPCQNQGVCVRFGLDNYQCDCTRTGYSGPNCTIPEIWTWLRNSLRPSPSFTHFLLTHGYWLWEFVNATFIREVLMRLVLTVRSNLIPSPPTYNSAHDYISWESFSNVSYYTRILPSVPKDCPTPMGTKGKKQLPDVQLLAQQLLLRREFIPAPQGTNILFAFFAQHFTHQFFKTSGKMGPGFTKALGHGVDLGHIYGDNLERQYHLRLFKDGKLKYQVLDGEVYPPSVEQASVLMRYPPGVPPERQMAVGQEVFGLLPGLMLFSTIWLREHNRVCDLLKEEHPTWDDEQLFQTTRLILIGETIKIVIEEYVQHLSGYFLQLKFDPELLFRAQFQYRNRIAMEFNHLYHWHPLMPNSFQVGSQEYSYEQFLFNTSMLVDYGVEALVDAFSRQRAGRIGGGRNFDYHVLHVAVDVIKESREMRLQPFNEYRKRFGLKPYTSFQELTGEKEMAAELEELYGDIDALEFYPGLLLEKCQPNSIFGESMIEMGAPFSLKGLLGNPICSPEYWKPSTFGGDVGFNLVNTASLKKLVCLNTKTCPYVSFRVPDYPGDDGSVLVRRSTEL
In words: Inhibition of COX1 activity (PGE2 release) in resting RAW 264.7 macrophages. The series is classed as cell-based. To be noted: for Type of inhibition “Irreversibile”: 30 min exposure, substrate applied directly or after extensive washing, difference less than 5% = irreversible. The procedure: The extent and type of inhibitory effects of this class of compounds on cyclooxygenase type-1 (COX1) activity was estimated in resting RAW 264.7 macrophages.
The type of inhibition (irreversible vs. reversible) was determined in resting conditions by exposing the cells to the test compounds for 30 min followed by the application of the substrate either directly or after extensive washing and then incubated for additional 15 min. The presence of residual activity (difference less than 5% vs. that recorded without washing) was taken as index of the irreversible nature of the inhibitory effects of the compounds.

Series [3] deals with rats (carrageenan paw edema). In words: Anti-inflammatory activity: carrageenan-induced paw edema in conscious rats. The following applies: rat, intragastric, paw volume 3 hours after carrageenan, mean ± SEM. The arrangement: concentration or dose not given beside the values. The series is classed as in vivo. The procedure:
Paw edema was induced in conscious rats by subplantar injection of carrageenan (0.1 ml of 1% carrageenan suspension in carboxymethylcellulose 1%). Immediately after carrageenan injection, compounds or vehicle (CMC, 1%) were administered intragastrically to different groups of rats in a volume of 10 ml/kg. Paw volume was measured with a plethysmometer (Basile, Comerio, Italy) immediately before carrageenan injection and 3 hours afterwards. Paw edema was determined in each rat by subtracting the initial volume displacement (pre-drug) from the subsequent post-carrageenan measurement. Edema was expressed as the percent increase in paw volume relative to the preinjection value for each animal. Statistical analysis was performed with ANOVA followed by Newman Keuls test.
(The carrageenan paw model is a standard test of acute inflammation.)

The subject of series [4] is Male Wistar rats (glandular mucosa of the stomach). The series can be described thus: Gastrolesive activity: gastric mucosal lesion index in rats. The format is in vivo. To be noted: rat, aspirin 120 mg/kg intragastric or equimolar doses, 3 hours after treatment, mean ± SEM. The procedure:
Male Wistar rats, […] (Harlan, S. Pietro al Natisone, Italy) were individually housed in hanging stainless-steel cages with grid floors, at constant room temperature (25±1° C.) and humidity (60±5%), with an artificial 12:12 h light/dark cycle. They were deprived of food but not of water 24 h before the experiments. Groups of rats (n=8-10) were given aspirin (Acetylsalicylic acid) 120 mg/kg by intragastric route or equimolar doses of the compounds under study. Rats were sacrificed 3 hours after the administration of the compounds. Immediately after the sacrifice, the stomachs were removed, opened along the lesser curvature and examined for the assessment of mucosal lesions, the stomachs were laid on a flat surface under a stereomicroscope. The glandular mucosa was examined and each individual hemorrhagic lesion was measured along its greatest length (<1 mm: rating=1; 1-2 mm: rating=2; >2 mm: rating according to their greatest length). The lengths of the lesions were summed to give an overall total, designated as the lesion index, for each stomach. Statistical analysis was performed with ANOVA followed by Newman Keuls test.

A short description of series [5]: Hydrolysis in acidic medium (pH 1). The format is physicochemical. To be noted: HCl 0.1M, 250 μM, 37°C. The procedure:
A solution of each compound (10 mM) in acetonitrile was added to a HCl 0.1M preheated at 37° C., the final concentration of the compound was 250 μM. Resulting solution was maintained at 37±0.5° C. and at appropriate time intervals a 20 μL aliquote of reaction solution was analysed by RP-HPLC.
(§1) The reverse-phase HPLC procedure allowed separation and quantitation of remaining salicylic ester and of salicylic acid.
(§2) HPLC analyses were performed with a HP 1100 chromatograph system (Agilent Technologies, Palo Alto, Calif., USA) equipped with a quaternary pump (model G1311A), a membrane degasser (G1379A), a diode-array detector (DAD) (model G1315B) integrated in the HP1100 system. Data analysis was done using a HP ChemStation system (Agilent Technologies). The analytical column was a Nucleosil 100-5C18 Nautilus (250×4.6 mm, 5 μm particle size) (Macherey-Nagel). The mobile phase consisting of acetonitrile/water (55/45) with 0.1% trifluoroacetic acid and the flow-rate was 1.2 mL/min. The injection volume was 20 μL (Rheodyne, Cotati, Calif.). The column effluent was monitored at 226 nm (for salicylic esters) and 240 nm (for salicylic acid) referenced against a 600 nm wavelength. Quantitation was done by comparison of peak areas with standards chromatographed under the same conditions.
(§3) The hydrolysis of all esters followed first-order kinetics; the observed pseudo-first-order rate constants (kobs) for the hydrolysis were calculated from the slopes of linear plots of the natural logarithm of percent remaining salicylic ester against time and the corresponding half-lives (t1/2) were obtained from: […]

Series [6] in a line: Hydrolysis in human serum. The series is classed as in vitro ADME. To be noted: 37°C, RP-HPLC, half-life of hydrolysis, read-out: Uman Serum stability (t1/2 h) (converted). The procedure: A solution of each compound (10 mM) in acetonitrile was added to human serum (Sigma) preheated at 37° C., the final concentration of the compound was 250 μM. Resulting solution was incubated at 37±0.5° C. and at appropriate time intervals 500 μL of reaction mixture was withdrawn and added to 750 μL of acetonitrile containing 0.1% trifluoroacetic acid in order to deproteinize the serum. Sample was sonicated, vortexed and then centrifuged for 10′ at 2150 g, The clear supernatant was filtered by 0.45 μm PTFE filters (Alltech) and analysed by RP-HPLC.
as §1, §2, §3

Where [7] appears, read: 10 μM, resting RAW 264.7 macrophages, arachidonic acid 1 μM.
Setting [8] is: 30 μM, resting RAW 264.7 macrophages, arachidonic acid 1 μM.
Setting [9] is: RAW264.7, read-out: COX1 inhibition %.

The structures appear in SMILES notation. Where two headings read alike, the source gives them in different places. A value given as a limit tells only on which side of the number the result lay.

As a reminder, the melting point is the temperature, or range, at which the solid turns liquid. Broadly, the inhibition is the drop in the measured response relative to a control, in per cent.

For `O=C(Cc1ccc(OCC(CO[N+](=O)[O-])O[N+](=O)[O-])cc1)Oc1ccccc1C(=O)O` (centres unmarked), the melting point fell in the range of 94.5 to 95 °C.

Take `O=C(CCCO[N+](=O)[O-])Oc1ccccc1C(=O)O` [(2), 2-{[4-(nitrooxy)butanoyl]oxy}benzoic acid]: in series [1], the inhibition at 1 µM turned out to be 6%, the inhibition at 10 µM was found to be 15% and the inhibition at 30 µM came to 44%. The COX1 inhibition % in series [2] (setting [7]) is 62%. In addition, the COX1 inhibition % in series [2] (setting [8]) turned out to be 77%. Moreover, the “Type of inhibition “Irreversibile”” value in series [2] is given as “YES”. Further, in series [2] (setting [9]), the inhibition at 1 µM was 21%.

In the case of `O=C(CCCCO[N+](=O)[O-])Oc1ccccc1C(=O)O` [(3), 2-{[5-(nitrooxy)pentanoyl]oxy}benzoic acid], the results for the inhibition at 1 µM in series [1] and in series [2] (setting [9]) were 5% and 11%, respectively. Moreover, the inhibition at 10 µM in series [1] was 27%. For the same compound, the inhibition at 30 µM in series [1] was 43%. In addition, the values for the COX1 inhibition % in series [2] (setting [7]) and in series [2] (setting [8]) were 66% and 77%, respectively. In addition, the “Type of inhibition “Irreversibile”” value in series [2] is listed as “YES”.

Consider `CC(=O)Oc1ccccc1C(=O)O` [Acetylsalicylic acid, reference compound], for which, in series [3], the “Anti inflammatory activity Paw edema (% increase)” value is reported as 32.95 ± 3.19 %. The “Gastrotoxicity Lesion index (mm)” value in series [4] was 44.75 ± 4.66 mm. Further, in series [1], the inhibition at 1 µM was determined as 2%, the inhibition at 10 µM was 5% and the inhibition at 30 µM came to 20%. In addition, in series [5], the “pH 1 stability (% after 3 h)” value is given as greater than 90%. The compound further registered a COX1 inhibition % in series [2] (setting [7]) of 27%. The same compound showed a COX1 inhibition % in series [2] (setting [8]) of 53%. The “Type of inhibition “Irreversibile”” value in series [2] was “YES”. Also, in series [2] (RAW264.7, 1 μM, resting RAW 264.7 macrophages, arachidonic acid 1 μM, read-out: COX1 inhibition %), the inhibition at 1 µM is less than 2%. Besides, the half-life at 250 μM in series [6] was 1.37 h.

The compound `O=C(CCOc1no[n+]([O-])c1-c1ccccc1)Oc1ccccc1C(=O)O` [Compound 12, 2-[(3-{[5-oxido-4-phenyl-1,2,5-oxadiazol-3-yl]oxy}propanoyl)oxy]benzoic acid] came in with a melting point of 152 to 153.9 °C.

In the case of `O=C(CCO[N+](=O)[O-])Oc1ccccc1C(=O)O` [Compound (1), 2-{[3-(nitrooxy)propanoyl]oxy}benzoic acid], the “pH 1 stability (% after 3 h)” value in series [5] was greater than 90%. Moreover, the half-life at 250 μM in series [6] was 0.26 h.

For the compound `O=C(CCC(CO[N+](=O)[O-])O[N+](=O)[O-])Oc1ccccc1C(=O)O` (centres unmarked) [Compound (6), 2-{[4,5-bis(nitrooxy)pentanoyl]oxy}benzoic acid], in series [3], the “Anti inflammatory activity Paw edema (% increase)” value is 29.95 ± 7.30 %. In addition, the “Gastrotoxicity Lesion index (mm)” value in series [4] is given as 0.50 ± 0.22 mm. For the same compound, the “pH 1 stability (% after 3 h)” value in series [5] is reported as greater than 85%. Besides, the half-life at 250 μM in series [6] was 4.08 h.

Turning to `O=C(CCCC(CO[N+](=O)[O-])O[N+](=O)[O-])Oc1ccccc1C(=O)O` (centres unmarked) [Compound (7), 2-{[5,6-bis(nitrooxy)hexanoyl]oxy}benzoic acid], the “Anti inflammatory activity Paw edema (% increase)” value in series [3] came to 26.19 ± 3.58 %. Moreover, the “Gastrotoxicity Lesion index (mm)” value in series [4] is given as 0.85 ± 0.64 mm. The “pH 1 stability (% after 3 h)” value in series [5] was greater than 85%. The half-life at 250 μM in series [6] was 4.87 h.

On to `O=C(CCOc1no[n+]([O-])c1S(=O)(=O)c1ccccc1)Oc1ccccc1C(=O)O` [Compound (11), 2-[(3-{[5-oxido-4-(phenylsulfonyl)-1,2,5-oxadiazol-3-yl]oxy}propanoyl)oxy]benzoic acid], for which the melting point lay within 169 to 170 °C. Moreover, the “Anti inflammatory activity Paw edema (% increase)” value in series [3] is reported as 34.88 ± 4.69 %. Also, in series [4], the “Gastrotoxicity Lesion index (mm)” value is 0.50 ± 0.31 mm. Moreover, the “pH 1 stability (% after 3 h)” value in series [5] was greater than 90%. The half-life at 250 μM in series [6] was 0.44 h.

With `CCC(=O)Oc1ccccc1C(=O)O` [Propanoylsalicylic acid, reference compound], in series [3], the “Anti inflammatory activity Paw edema (% increase)” value amounted to 48.13 ± 6.54%. Besides, the “Gastrotoxicity Lesion index (mm)” value in series [4] amounted to 52.00 ± 11.78 mm.

The record behind these values is patent publication US20080293781A1, “Salicylic Acid Derivatives” (priority 2005, published 2008).
